For one assay, the target named is T1, GLUT1 (Homo sapiens, UniProt P11166).
T1 construct: endogenous in cells
T1 sequence (P11166 1-492): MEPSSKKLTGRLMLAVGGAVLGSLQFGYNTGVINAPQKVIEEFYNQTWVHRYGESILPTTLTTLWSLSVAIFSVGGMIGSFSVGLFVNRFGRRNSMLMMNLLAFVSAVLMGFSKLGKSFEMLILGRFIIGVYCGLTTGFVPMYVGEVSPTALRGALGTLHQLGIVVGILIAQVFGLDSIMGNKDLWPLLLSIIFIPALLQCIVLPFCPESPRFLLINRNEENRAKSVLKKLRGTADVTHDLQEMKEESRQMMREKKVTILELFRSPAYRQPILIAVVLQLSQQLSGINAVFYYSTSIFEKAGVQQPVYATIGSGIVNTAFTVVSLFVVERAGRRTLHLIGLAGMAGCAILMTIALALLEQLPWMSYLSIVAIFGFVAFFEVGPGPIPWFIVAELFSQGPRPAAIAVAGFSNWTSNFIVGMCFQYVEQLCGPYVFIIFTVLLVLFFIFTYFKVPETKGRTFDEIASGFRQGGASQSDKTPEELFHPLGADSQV
As to the kind of experiment: Indirect measurement of GLUT activity by quantification of intracellular ATP levels (glucose induced ATP increase). Type of assay: cell-based. As to conditions: DLD1 cells; 1 mM glucose, 1 uM Rotenone, 15 min; standardized to cytochalasin B IC50 values; read-out: IC50 regarding glucose induced ATP increase (GLUT1 inhibition). From the text:
(§1) It is well known that a combination of small-molecule inhibitors of mitochondrial electron transport chain and glucose catabolism synergistically suppress ATP production and impair cellular viability (Ulanovskaya et al., 2008, 2011; Liu, et al. 2001). We therefore used DLD1 or CHO-K1 cells in combination with an oxidative phosphorylation inhibitor to identify GLUT inhibitors. Cell lines were maintained in DMEM medium supplemented with 10% FCS and 1% Penicillin-Streptomycin solution and 2% Glutamax. The cells were treated with trypsin and seeded into 384 plates at a density of 4000 cells/well. The cells were then cultured overnight in glucose free media containing 1% FCS to reduce intracellular ATP levels. After 24 h the cells were incubated at 37° C. containing the appropriate glucose or in case of GLUT2 fructose concentration (1 mM and 30 mM respectively) with or without compounds and 1 uM Rotenone for 15 min. The CellTiter-Glo® Luminescent Cell Viability Assay from Promega was then used to measure ATP levels. Compounds able to reduce the ATP Levels within 15 min of glucose application were considered to be glucose uptake inhibitors.

In another assay the target is T2, GLUT2 (Homo sapiens, UniProt P11168).
T2 sequence (P11168 1-524): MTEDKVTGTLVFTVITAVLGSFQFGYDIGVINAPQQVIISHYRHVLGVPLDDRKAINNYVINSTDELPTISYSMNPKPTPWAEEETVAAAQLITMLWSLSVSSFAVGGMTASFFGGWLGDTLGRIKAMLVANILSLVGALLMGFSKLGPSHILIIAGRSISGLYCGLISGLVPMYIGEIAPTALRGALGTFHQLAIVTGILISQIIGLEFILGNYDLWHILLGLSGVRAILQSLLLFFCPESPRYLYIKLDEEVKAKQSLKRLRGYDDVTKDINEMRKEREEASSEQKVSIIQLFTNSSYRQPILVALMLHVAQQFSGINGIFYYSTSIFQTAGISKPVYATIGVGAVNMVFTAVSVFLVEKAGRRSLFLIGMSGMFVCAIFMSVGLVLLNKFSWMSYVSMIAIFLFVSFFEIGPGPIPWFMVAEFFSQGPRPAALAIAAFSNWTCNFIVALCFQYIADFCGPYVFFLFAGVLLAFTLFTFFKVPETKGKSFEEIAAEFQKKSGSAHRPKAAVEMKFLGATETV
The experiment in a line: Indirect measurement of GLUT activity by quantification of intracellular ATP levels (fructose induced ATP increase). The assay is classed as cell-based. As to conditions: 30 mM fructose, 1 uM Rotenone, 15 min; read-out: IC50 regarding fructose induced ATP increase (GLUT2 inhibition).
From the text: as §1

Take `Cc1ccc2nc(C)cc(C(=O)Nc3cn(Cc4ccc(F)cc4)nc3C)c2c1` [Example 1, N-[1-(4-fluorobenzyl)-3-methyl-1H-pyrazol-4-yl]-2,6-dimethylquinoline-4-carboxamide]: the half-maximal inhibitory concentration (IC50) was 61 nM on GLUT1 and 5210 nM on GLUT2.

Take `Cc1nn(Cc2ccc(C#N)cc2)cc1NC(=O)c1cc(C(N)=O)nc2ccccc12` [Example 9, N^4-[1-(4-cyanobenzyl)-3-methyl-1H-pyrazol-4-yl]quinoline-2,4-dicarboxamide]: the IC50 at GLUT1 was 4.3 nM; at GLUT2 it was 36100 nM. As to `Cc1nn(Cc2ccn(C)n2)cc1NC(=O)c1cc(C(N)=O)nc2ccccc12` [Example 63, N^4-{3-methyl-1-[(1-methyl-1H-pyrazol-3-yl)methyl]-1H-pyrazol-4-yl}quinoline-2,4-dicarboxamide], the IC50 at GLUT1 was 190 nM. On the same count and under the same terms, next, `CCc1noc(Cn2cc(NC(=O)c3cc(C(F)(F)F)nc4ccc(Br)cc34)c(C)n2)n1` [Example 64, 6-bromo-N-{1-[(3-ethyl-1,2,4-oxadiazol-5-yl)methyl]-3-methyl-1H-pyrazol-4-yl}-2-(trifluoromethyl)quinoline-4-carboxamide]: 391 nM; `CNC(=O)c1nc(Cn2cc(NC(=O)c3cc(C(N)=O)nc4ccccc34)c(C)n2)no1` [Example 65, N^4-(3-methyl-1-{[5-(methylcarbamoyl)-1,2,4-oxadiazol-3-yl]methyl}-1H-pyrazol-4-yl)quinoline-2,4-dicarboxamide]: 301 nM. Same read-out and setting: in the case of `CCc1noc(Cn2cc(NC(=O)c3cc(C(N)=O)nc4ccccc34)c(C)n2)n1` [Example 66, N^4-{1-[(3-ethyl-1,2,4-oxadiazol-5-yl)methyl]-3-methyl-1H-pyrazol-4-yl}quinoline-2,4-dicarboxamide] it was 430 nM; in that of `CCS(=O)(=O)N1CCC(Cn2cc(NC(=O)c3cc(C(F)(F)F)nc4ccc(Br)cc34)c(C)n2)CC1` [Example 67, 6-bromo-N-(1-{[1-(ethylsulfonyl)piperidin-4-yl]methyl}-3-methyl-1H-pyrazol-4-yl)-2-(trifluoromethyl)quinoline-4-carboxamide], 665 nM; in that of `Cc1nc(Cn2cc(NC(=O)c3cc(C(N)=O)nc4ccccc34)c(C)n2)cs1` [Example 68, N^4-{3-methyl-1-[(2-methyl-1,3-thiazol-4-yl)methyl]-1H-pyrazol-4-yl}quinoline-2,4-dicarboxamide], 260 nM. Consider `CNC(=O)c1nc(Cn2cc(NC(=O)c3cc(C(F)(F)F)nc4ccc(Br)cc34)c(C)n2)no1` [Example 69, 6-bromo-N-(3-methyl-1-{[5-(methylcarbamoyl)-1,2,4-oxadiazol-3-yl]methyl}-1H-pyrazol-4-yl)-2-(trifluoromethyl)quinoline-4-carboxamide], for which, on GLUT1, the IC50 was 64 nM. Still for that read-out and setting: next, `Cc1nc(Cn2cc(NC(=O)c3cc(C(F)(F)F)nc4ccc(Br)cc34)c(C)n2)cs1` [Example 70, 6-bromo-N-{3-methyl-1-[(2-methyl-1,3-thiazol-4-yl)methyl]-1H-pyrazol-4-yl}-2-(trifluoromethyl)quinoline-4-carboxamide]: 275 nM; `Cc1cc(Cn2cc(NC(=O)c3cc(C(F)(F)F)nc4ccc(Br)cc34)c(C)n2)no1` [Example 71, 6-bromo-N-{3-methyl-1-[(5-methyl-1,2-oxazol-3-yl)methyl]-1H-pyrazol-4-yl}-2-(trifluoromethyl)quinoline-4-carboxamide]: 294 nM; `CCS(=O)(=O)N1CCC(Cn2cc(NC(=O)c3cc(C(N)=O)nc4ccccc34)c(C)n2)CC1` [Example 72, N^4-(1-{[1-(ethylsulfonyl)piperidin-4-yl]methyl}-3-methyl-1H-pyrazol-4-yl)quinoline-2,4-dicarboxamide]: 247 nM. Consider `Cc1nn(Cc2ccn(C)n2)cc1NC(=O)c1cc(C(F)(F)F)nc2ccc(Br)cc12` [Example 73, 6-bromo-N-{3-methyl-1-[(1-methyl-1H-pyrazol-3-yl)methyl]-1H-pyrazol-4-yl}-2-(trifluoromethyl)quinoline-4-carboxamide], for which, on GLUT1, the 50% inhibitory concentration (IC50) was found to be 172 nM. Turning to `Cc1cc(Cn2cc(NC(=O)c3cc(C(N)=O)nc4ccccc34)c(C)n2)no1` [Example 74, N^4-{3-methyl-1-[(5-methyl-1,2-oxazol-3-yl)methyl]-1H-pyrazol-4-yl}quinoline-2,4-dicarboxamide], the IC50 on GLUT1 is 153 nM.

The record behind these values is US20170226081A1, “GLUCOSE TRANSPORT INHIBITORS” (Bayer Pharma Aktiengesellschaft, priority 2014, published 2017).
